What all share (format): cell-based
The test system of assay [1] is Bacillus subtilis NBRC 3134^T. The experiment in a line: Antibacterial spectrum test, paper disk assay. The following applies: 50 μL of 1000 γ solution in methanol, LB agar, 37° C., 18 hours. The procedure:
(§1) The antibacterial activity of HK-1 was assayed using a paper disk against the following bacterial bodies. A piece of ice was taken out of a glycerol stock of G. stearothermophilus stored at -80° C. and […] inoculated on the LB agar culture medium (see Example 1) with a toothpick. This was incubated at 60° C. for 18 hours. After the incubation, 1⁄2 platinum loop of the culture was harvested and suspended in 500 μL of sterile water. The bacterial suspension was diluted 10-fold with sterile water. Onto a LB agar culture medium, 100 μL of the diluted suspension was dropped and spread until it was dried up. A piece of paper disk was placed on a filter paper, onto which 50 μL of a HK-1 solution adjusted to 1000 γ with methanol was dropped and dried. Then the disk was placed on the agar culture medium coated with the bacterial body. After incubation at 60° C. for 18 hours, the diameter of the inhibition ring was measured. Assays were performed in the same manner as in 1 above, except that the incubation temperature was changed to 37° C.

The subject of assay [2] is Escherichia coli NBRC 102203^T. The experiment in a line: Antibacterial spectrum test, paper disk assay. As to conditions: 50 μL of 1000 γ solution in methanol, LB agar, 37° C., 18 hours. The procedure:
as §1

The test system of assay [3] is Streptomyces griseus NBRC 15744^T. The experiment in a line: Antibacterial spectrum test, paper disk assay. The following applies: 50 μL of 1000 γ solution in methanol, YMPD medium, 28° C., 4 days. The procedure:
The antibacterial activity of HK-1 was assayed using a paper disk against the following bacterial bodies.
A piece of ice out of a glycerol stock of S. griseus stored at −80° C. was planarly inoculated on the YMPD agar culture medium with a toothpick. This was incubated at 28° C. for 5 days. After the incubation, a small amount of spore was scraped off with a swab, and planarly inoculated on the YMPD culture medium. A piece of paper disk was placed on a filter paper, onto which 50 μL of a HK-1 solution adjusted to 1000 γ with methanol was dropped and dried. Then the disk was placed on the agar culture medium coated with the bacterial body. After incubation at 28° C. for 4 days, the diameter of the inhibition ring was measured.

Assay [4] deals with Bacillus subtilis NBRC 3134^T. The experiment in a line: Antibacterial activity test in changing pH, paper disk assay. As to conditions: 1000 γ in methanol, 50 μL on paper disk, 37° C., 18 hours. The procedure:
Into a 50-mL Falcon tube, 20 mg of HK-1 was weighed out using an electric balance, and therein 20 mL of methanol (1000 γ) was added followed by gentle stirring. Each 3.3 mL was aliquoted to totally two 15-mL Falcon tubes. To one of them 20 μL of 1 N sodium hydroxide was added followed by gentle stirring. The pH was tested with a pH test paper. Ten (10) μL of each sample was subjected to HPLC. The HPLC analysis conditions are as follows. The stability of a compound is regarded as one of the important information for evaluating a substance. This is because, even if the external environment changes, insofar as the compound itself is stable, it can be applied in various situations, and the information leads to acquisition of biological knowledges. Therefore, the stability of the activity was examined by measuring antibacterial activities with respect to G. stearothermophilus, and B. subtilis using the solution prepared in the above “1. Antibacterial spectrum test”. (1) In a 200-mL Erlenmeyer flask, 100 mL of a NB culture medium was prepared and sterilized in an autoclave (121° C., 20 min). (2) After cooling to 50° C. or lower, 100 μL of the B. subtilis spore suspension was added. […] The culture medium was taken out from the incubator, and the diameter of the inhibition ring was measured with calipers (Kanon hardened stainless 150 mm).

For assay [5], the system named is Geobacillus stearothermophilus ATCC 7953. The assay is described as above. As to conditions: 1000 γ in methanol, 50 μL on paper disk, 50° C., 18 hours. The protocol:
Into a 50-mL Falcon tube, 20 mg of HK-1 was weighed out using an electric balance, and therein 20 mL of methanol (1000 γ) was added followed by gentle stirring. Each 3.3 mL was aliquoted to totally two 15-mL Falcon tubes. To one of them 20 μL of 1 N sodium hydroxide was added followed by gentle stirring. The pH was tested with a pH test paper. Ten (10) μL of each sample was subjected to HPLC. The HPLC analysis conditions are as follows. The stability of a compound is regarded as one of the important information for evaluating a substance. This is because, even if the external environment changes, insofar as the compound itself is stable, it can be applied in various situations, and the information leads to acquisition of biological knowledges. Therefore, the stability of the activity was examined by measuring antibacterial activities with respect to G. stearothermophilus, and B. subtilis using the solution prepared in the above “1. Antibacterial spectrum test”. (1) Each 10 mL of the (autoclave treated) LB culture medium (see Example 1) was dispensed into two long test tubes. (2) Into each long test tube, 50 μL of a commercially available G. stearothermophilus spore suspension was seeded. […] The culture medium was taken out from the incubator, and the diameter of the inhibition ring was measured with calipers (Kanon hardened stainless 150 mm).

On to `COc1cc(OOc2cc(OC)c3c(c2-c2c(O)c(Cl)c(C)c4c2C(O)c2c(Cl)c(O)cc(O)c2C4=O)C(OC2OC(C)C(O)C2O)c2c(Cl)c(OC)c(Cl)c(C)c2C3=O)c(-c2c(O)c(Cl)c(C)c3c2C(O)c2c(Cl)c(O)cc(O)c2C3=O)c2c1C(=O)c1c(C)c(Cl)c(OC)c(Cl)c1C2OC1OC(C)C(O)C1O` (stereo not shown) [HK-1], for which the inhibition ring diameter in assay [1] is reported as 32.0 mm; in assay [2] it was 14.0 mm; in assay [3], 38.0 mm; in assay [4] (solution with pH adjusted to 9), 20.2 mm; in assay [4] (solution with pH not adjusted), 18.5 mm; in assay [5] (solution with pH adjusted to 9), 22.6 mm. In assay [5] (solution with pH not adjusted), this compound yielded an inhibition ring diameter of 21.9 mm.

(Values after US20220127298A1, “THERMOSPOROTHRIX HAZAKENSIS-DERIVED ANTIBACTERIALLY ACTIVE SUBSTANCE” (KENNAN EISEI KOGYO CO., LTD., priority 2019, published 2022).)
